The source of these data is US7037656B2, “Methods and compositions for identifying ligands for nuclear receptors” (priority 2000, dated 2006).

What all share (assay): Yeast 6x EcRE-lacZ β-galactosidase transactivation assay
Test [1] concerns Cf ΔA/B EcR + RXR β + GRIP1. The format is cell-based, Choristoneura fumiferana; mouse. The settings on record: RH 5992 10 μM, 4 hours, DMSO control 0.205. As for the experimental part:
(§1) The human RXR α (Genbank accession number X52773), mouse RXR β (Genbank accession number X66224) or mouse RXR γ (Genebank accession number X66225) subtypes were expressed in yeast-E. coli multicopy 2μ expression plasmids under regulation of CUP1 promoter with the LEU2 selective marker (1).
(§2) Briefly, yeast cells are cultured in 5 mL of YPD liquid medium overnight at 30° C. The cell culture was diluted 1:20 in YPD media and further grown until cell density reached an O.D of 0.6. at OD600. The cells were pelleted by centrifugation and washed with 10 mL of TE+0.1M lithium acetate. Cells are then resuspended in 10 mL TE+0.1M lithium acetate and incubated at 30° C. for 1 hour. Cells are collected and resuspended in 0.5 mL of TE+ 0.1M lithium acetate. Aliquots of cells (50 μL), were incubated for 15 minutes at 30° C. with 1–2 μg plasmid DNA in the presence of 5 μg of denatured salmon sperm DNA as DNA carrier. In the case of co-transformation, the indicated plasmids were added simultaneously. 50% polyethyleneglycol of molecular weight 4000, diluted in TE, was added to a final concentration of 35%. DMSO was added to the transformation solution simultaneously to a final concentration 3%. The samples were mixed well by vortexing and incubated for an additional 30 minutes at 30° C. The cell mixture is then heated for 15 minutes at 42° C. […]

The target in test [2] is T1, Cf ΔA/B EcR + RXR γ + GRIP1 (Choristoneura fumiferana, UniProt O77240).
T1 construct: human ubiquitin (76 aa) (N, cleaved yes); expressed in transfected cells; host or cells: yeast (Saccharomyces cerevisiae)
The format is cell-based, Choristoneura fumiferana; mouse. The settings on record: RH 5992 10 μM, 4 hours, DMSO control 0.200. As for the experimental part:
as §1, §2

For test [3], the target named is T2, Cf ΔA/B EcR + RXR α + GRIP1 (Choristoneura fumiferana, UniProt O77240).
T2 construct: human ubiquitin (76 aa) (N, cleaved yes); expressed in transfected cells; host or cells: yeast (Saccharomyces cerevisiae)
In kind it is cell-based, Choristoneura fumiferana; human. The settings on record: RH 5992 10 μM, 4 hours, DMSO control 0.270. How it is done: as §1, §2

The target in test [4] is T3, Aa ΔA/B EcR + Cf ΔA/B USP + GRIP1 (Aedes aegypti, UniProt P49880).
T3 construct: ubiquitin (human, 76 aa) (N, cleaved yes); expressed in transfected cells
In kind it is cell-based, Aedes aegypti; Choristoneura fumiferana. The settings on record: RH 5992 10 μM, 4 hours, DMSO control 0.250. How it is done:
as §2, with “simultaneously.” for “simultaneously. 50% polyethyleneglycol of molecular weight 4000, diluted in TE, was added to a final concentration of 35%. DMSO was added to the transformation solution simultaneously to a final concentration 3%. The samples were mixed well by vortexing and incubated for an additional 30 minutes at 30° C. The cell mixture is then heated for 15 minutes at 42° C.”
Using the transformation method described above, yeast were co-transformed with a reporter gene as shown in FIG. 2 and the expression vector encoding the full-length Aedes aegypti ecdysone receptor, Aa EcR (FIG. 7A) in the presence or absence of the Aa EcR heterodimer partner, Aa USP (a or b form, FIGS. 8A and 8B respectively). […] As the N-terminal portion of the AaEcR receptor is reported to play a role in ligand independent transactivation, an expression vector containing an N-terminal deletion in the Aa EcR was constructed (see FIG. 7B) and assessed in the β-galactosidase assays described above. […]

T3 sequence (P49880 with tags, fused parts or gaps): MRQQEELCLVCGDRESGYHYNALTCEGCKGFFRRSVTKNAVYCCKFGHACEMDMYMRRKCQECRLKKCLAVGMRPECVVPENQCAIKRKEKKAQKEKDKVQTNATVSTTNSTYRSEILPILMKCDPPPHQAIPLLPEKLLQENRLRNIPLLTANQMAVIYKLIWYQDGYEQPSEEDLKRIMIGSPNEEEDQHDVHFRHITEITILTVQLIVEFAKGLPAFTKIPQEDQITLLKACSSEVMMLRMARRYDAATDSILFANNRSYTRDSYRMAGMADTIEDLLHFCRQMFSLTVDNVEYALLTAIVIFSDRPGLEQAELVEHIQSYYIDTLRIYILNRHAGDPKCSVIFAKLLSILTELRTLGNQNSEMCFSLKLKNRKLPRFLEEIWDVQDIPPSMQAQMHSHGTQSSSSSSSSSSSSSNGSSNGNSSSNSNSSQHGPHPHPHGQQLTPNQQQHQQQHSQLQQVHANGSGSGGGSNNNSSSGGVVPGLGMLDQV
T3 sequence (O76202 with tags, fused parts or gaps partner): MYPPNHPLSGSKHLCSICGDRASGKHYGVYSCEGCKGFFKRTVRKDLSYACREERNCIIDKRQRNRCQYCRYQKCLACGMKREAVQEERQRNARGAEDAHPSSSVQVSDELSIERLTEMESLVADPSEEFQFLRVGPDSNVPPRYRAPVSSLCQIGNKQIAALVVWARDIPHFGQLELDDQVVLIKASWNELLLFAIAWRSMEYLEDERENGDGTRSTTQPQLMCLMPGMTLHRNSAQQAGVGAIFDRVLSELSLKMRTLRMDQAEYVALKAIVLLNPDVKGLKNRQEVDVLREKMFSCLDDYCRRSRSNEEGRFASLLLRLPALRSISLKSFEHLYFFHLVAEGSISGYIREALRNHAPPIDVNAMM
T2 sequence (O77240 entry or part of it, stated change not applied): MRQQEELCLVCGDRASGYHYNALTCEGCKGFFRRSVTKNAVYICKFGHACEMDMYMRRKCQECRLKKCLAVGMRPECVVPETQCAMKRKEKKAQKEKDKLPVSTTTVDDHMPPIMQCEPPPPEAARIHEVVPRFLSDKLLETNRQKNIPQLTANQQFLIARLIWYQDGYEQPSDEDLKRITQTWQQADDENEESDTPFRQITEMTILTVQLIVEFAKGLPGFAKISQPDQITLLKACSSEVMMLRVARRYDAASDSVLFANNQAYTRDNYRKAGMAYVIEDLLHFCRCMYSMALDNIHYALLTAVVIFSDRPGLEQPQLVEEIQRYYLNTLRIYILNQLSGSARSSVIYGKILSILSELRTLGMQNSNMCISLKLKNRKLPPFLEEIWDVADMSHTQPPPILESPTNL
T2 sequence (P19793 whole entry partner): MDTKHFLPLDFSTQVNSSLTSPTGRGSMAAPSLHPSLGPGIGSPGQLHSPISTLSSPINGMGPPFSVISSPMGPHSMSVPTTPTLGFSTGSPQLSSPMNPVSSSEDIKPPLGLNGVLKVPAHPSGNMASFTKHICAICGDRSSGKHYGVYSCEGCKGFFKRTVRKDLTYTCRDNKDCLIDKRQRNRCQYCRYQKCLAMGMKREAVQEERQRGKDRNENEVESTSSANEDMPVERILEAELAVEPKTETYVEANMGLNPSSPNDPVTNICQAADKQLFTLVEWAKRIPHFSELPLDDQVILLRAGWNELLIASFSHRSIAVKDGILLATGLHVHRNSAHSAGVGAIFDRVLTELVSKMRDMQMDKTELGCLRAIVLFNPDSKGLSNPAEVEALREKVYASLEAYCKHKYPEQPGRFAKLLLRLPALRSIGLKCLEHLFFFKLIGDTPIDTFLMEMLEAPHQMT
T1 sequence (O77240 entry or part of it, stated change not applied): as the sequence (O77240 entry or part of it, stated change not applied) above
T1 sequence (P28705 whole entry partner): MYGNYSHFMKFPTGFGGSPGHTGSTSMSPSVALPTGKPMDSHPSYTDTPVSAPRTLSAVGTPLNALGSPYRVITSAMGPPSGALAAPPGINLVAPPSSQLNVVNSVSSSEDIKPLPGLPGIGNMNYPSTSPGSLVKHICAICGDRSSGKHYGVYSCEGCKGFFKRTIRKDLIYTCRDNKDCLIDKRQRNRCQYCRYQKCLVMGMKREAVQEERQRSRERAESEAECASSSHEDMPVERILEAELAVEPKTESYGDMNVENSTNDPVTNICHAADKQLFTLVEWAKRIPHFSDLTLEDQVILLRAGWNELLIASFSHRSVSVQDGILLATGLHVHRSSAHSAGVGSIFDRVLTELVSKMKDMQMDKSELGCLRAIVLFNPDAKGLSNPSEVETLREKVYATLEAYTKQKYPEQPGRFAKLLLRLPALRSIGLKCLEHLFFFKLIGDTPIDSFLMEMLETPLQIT

For the compound `CCc1ccc(C(=O)NN(C(=O)c2cc(C)cc(C)c2)C(C)(C)C)cc1` [RH 5992, tebufenozide], the β-galactosidase activity is on record as 0.456 in test [1], 1.030 in test [2], 2.063 in test [3] and 3.000 in test [4].
